Measured values reported in patent publication US11534457B2, “Use of dextran sulfate” (priority 2017, dated 2022).

System: severe traumatic brain injury (sTBI)
Assay: sTBI in rats, brain gene expression arrays and pathway analysis (Example 9)
Type: in vivo, Male Wistar rats
Design: key to z score, canonical pathway Dendritic Cell Maturation / z score, canonical pathway Adrenomedullin Signaling pathway / z score, canonical pathway Endothelin-1 Signaling / effect on canonical pathway Adrenomedullin Signaling pathway / effect on canonical pathway Endothelin-1 Signaling / effect on canonical pathway Dendritic Cell Maturation / Ingenuity canonical pathway Adrenomedullin signaling pathway, z score / Ingenuity canonical pathway FLT3 Signaling in Hematopoietic Progenitor Cells, z score / Ingenuity canonical pathway Opioid Signaling Pathway, z score / Ingenuity canonical pathway VDR/RXR Activation, z score / Ingenuity canonical pathway Neuropathic Pain Signaling In Dorsal Horn Neurons, z score / Ingenuity canonical pathway STAT3 Pathway, z score / Ingenuity canonical pathway IL-1 Signaling, z score / Ingenuity canonical pathway IL-6 Signaling, z score / Ingenuity canonical pathway NF-κB Signaling, z score / Ingenuity canonical pathway Role of NFAT in Cardiac Hypertrophy, z score / Ingenuity canonical pathway PPARα/RXRα Activation, z score: *: ambiguous effect
Protocol: The experimental protocol used in this study was approved by the Ethical Committee of the Catholic University of Rome, according to international standards and guidelines for animal care. Male Wistar rats of 300-350 g body weight were fed with standard laboratory diet and water ad libitum in a controlled environment. As the anesthetic mixture, the animals received 35 mg/kg b.w. ketamine and 0.25 mg/kg body weight midazolam by i.p. injection. Severe traumatic brain injury (sTBI) was induced by dropping a 450 g weight from 2 m height on to the rat head that had been protected by a metal disk previously fixed on the skull, according to the “weight drop” impact acceleration model (Marmarou et al., A new model of diffuse brain injury in rats. Part I: Pathophysiology and biomechanics. J Neurosurg. 1994; 80: 291-300). […] At the end of each period of treatment, rats were anesthetized again and then immediately sacrificed.
LMW-DS (Tikomed AB) was provided at a stock concentration of 20 mg/ml and was kept in a temperature-monitored refrigerator at 4° C. LMW-DS aliquots were diluted to the appropriate dosing concentration in sterile saline prior to delivery of a single subcutaneous injection.
Three doses of LMW-DS were administered subcutaneously 30 minutes post-TBI. The animals were sacrificed at 2 days post-TBI. The animals were divided into the following subgroups:
Three doses of LMW-DS were administered subcutaneously 30 minutes post-TBI. The animals were sacrificed at 7 days post-TBI. The animals were divided into the following subgroups:
An in vivo craniectomy was performed on all animals during anesthesia. After carefully removing the rat's skull, the brain was exposed and removed with a surgical spatula and quickly dropped in RNALater and preserved at 4° C. for further processing.
RNA extraction and array processing was carried out by SourceBioscience. The arrays used were the Agilent Rat expression arrays.
Statistical analysis was carried out using the Metaboanalyst software package. Gene expression changes of 10% with a p<0.05 were regarded as significant.
Pathway analysis of the differentially regulated genes was carried out using the Ingenuity pathway analysis package. The analysis was performed with special reference to pathways and molecular processes and diseases associated with neurodegenerative disease, including dementia, Alzheimer's disease, ALS, TBI and stroke, and with scarring and fibrosis, including glaucoma and normal pressure hydrocephalus (NPH) after subarachnoid haemorrhage.

[1] = 3 repeated doses of 15 mg/kg, 7 days
[2] = 2 days after TBI, TBI + 1 mg/kg LMW-DS
[3] = 2 days after TBI, TBI + 1 mg/kg LMW-DS, relative to control

Substance: low molecular weight dextran sulfate [LMW-DS]
- genes with altered TBI-specific expression (1 mg/kg s.c. 30 min after injury, 2 days): 372 genes
- genes with altered TBI-specific expression (1 mg/kg s.c. 30 min after injury, 7 days): 3602 genes
- TBI-deregulated genes remaining deregulated relative to healthy controls (of 221) (1 mg/kg, 2 days): 22 genes
- TBI-deregulated genes remaining deregulated, percent (1 mg/kg, 2 days): 10%
- genes differing from healthy controls (1 mg/kg, 2 days): 209 genes
- TBI-deregulated genes remaining deregulated relative to healthy controls (of 2741) (1 mg/kg, 7 days): 124 genes
- TBI-deregulated genes remaining deregulated, percent (1 mg/kg, 7 days): 4.5%
- genes differing from healthy controls (1 mg/kg, 7 days): 282 genes
- genes with altered TBI-specific expression (5 mg/kg s.c. 30 min after TBI, 2 days): 702 genes
- genes with altered TBI-specific expression (5 mg/kg s.c. 30 min after TBI, 7 days): 3852 genes
- TBI-deregulated genes remaining deregulated relative to healthy controls (of 221) (5 mg/kg, 2 days): 51 genes
- TBI-deregulated genes remaining deregulated, percent (5 mg/kg, 2 days): 23%
- genes differing from healthy controls (5 mg/kg, 2 days): 258 genes
- TBI-deregulated genes remaining deregulated relative to healthy controls (of 2741) (5 mg/kg, 7 days): 169 genes
- TBI-deregulated genes remaining deregulated, percent (5 mg/kg, 7 days): 6.1%
- genes differing from healthy controls (5 mg/kg, 7 days): 398 genes
- genes with altered TBI-specific expression (15 mg/kg s.c. 30 min after TBI, 2 days): 247 genes
- genes with altered TBI-specific expression (15 mg/kg s.c. 30 min after TBI, 7 days): 3901 genes
- TBI-deregulated genes remaining deregulated relative to healthy controls (of 221) (15 mg/kg, 2 days): 19 genes
- TBI-deregulated genes remaining deregulated, percent (15 mg/kg, 2 days): 8.5%
- genes differing from healthy controls (15 mg/kg, 2 days): 47 genes
- TBI-deregulated genes remaining deregulated relative to healthy controls (of 2741) (15 mg/kg, 7 days): 85 genes
- TBI-deregulated genes remaining deregulated, percent (15 mg/kg, 7 days): 3.1%
- genes differing from healthy controls (15 mg/kg, 7 days): 158 genes
- TBI-deregulated genes remaining deregulated relative to healthy controls (of 2741) [1]: 116 genes
- TBI-deregulated genes remaining deregulated, percent [1]: 4.25%
- genes differing from healthy controls [1]: 234 genes
- effect on canonical pathway Adrenomedullin Signaling pathway [2]: *
- effect on canonical pathway Dendritic Cell Maturation [2]: *
- effect on canonical pathway Endothelin-1 Signaling [2]: *
- effect on canonical pathway IL-1 Signaling [2]: Inhibited
- effect on canonical pathway Osteoarthritis Pathway [2]: Inhibited
- effect on canonical pathway Role of NFAT in Regulation of the Immune Response [2]: Activated
- z score, Abdominal cancer [2]: −1.538
- z score, Abdominal carcinoma [2]: −1.715
- z score, Abdominal neoplasm [2]: −0.154
- z score, Activation of blood cells [2]: 0.086
- z score, Activation of cells [2]: 0.836
- z score, Activation of leukocytes [2]: 0.086
- z score, Activation of lymphocytes [2]: −1.158
- z score, Adhesion of tumor cell lines [2]: 2.074
- z score, Apoptosis [2]: −0.337
- z score, Apoptosis of muscle cells [2]: 0.041
- z score, Behavior [2]: 1.334
- z score, Binding of tumor cell lines [2]: 2.397
- z score, Carcinoma [2]: −0.127
- z score, Cell death [2]: −0.793
- z score, Cell death of blood cells [2]: 1.082
- z score, Cell death of immune cells [2]: 1.001
- z score, Cell movement [2]: 1.948
- z score, Cell movement of muscle cells [2]: −0.26
- z score, Cell movement of vascular smooth muscle cells [2]: −0.588
- z score, Cell proliferation of T lymphocytes [2]: −1.097
- z score, Cellular homeostasis [2]: 0.19
- z score, Concentration of prostaglandin [2]: −0.911
- z score, Development of connective tissue cells [2]: −0.332
- z score, Differentiation of bone cells [2]: −0.341
- z score, Differentiation of connective tissue cells [2]: 0.73
- z score, Differentiation of hematopoietic progenitor cells [2]: 0.487
- z score, Differentiation of osteoclasts [2]: −0.223
- z score, Digestive organ tumor [2]: −0.604
- z score, Experimentally-induced arthritis [2]: −0.816
- z score, Extracranial solid tumor [2]: 0.056
- z score, Genital tumor [2]: 0.13
- z score, Incidence of tumor [2]: −1.131
- z score, Inflammation of absolute anatomical region [2]: −1.359
- z score, Inflammation of body cavity [2]: −1.757
- z score, Inflammation of joint [2]: −0.053
- z score, Inflammation of organ [2]: −1.295
- z score, Inflammatory response [2]: 1.159
- z score, Interaction of mononuclear leukocytes [2]: 1.626
- z score, Leukocyte migration [2]: 1.296
- z score, Leukopoiesis [2]: 1.185
- z score, Locomotion [2]: −0.039
- z score, Lymphopoiesis [2]: 0.583
- z score, Malignant solid tumor [2]: −0.562
- z score, Migration of cells [2]: 2.093
- z score, Necrosis [2]: −0.361
- z score, Non-hematologic malignant neoplasm [2]: −0.243
- z score, Pelvic tumor [2]: −0.651
- z score, Proliferation of blood cells [2]: −1.083
- z score, Proliferation of lymphatic system cells [2]: −1.112
- z score, Proliferation of lymphocytes [2]: −0.852
- z score, Quantity of blood cells [2]: −1.479
- z score, Quantity of bone [2]: −1.985
- z score, Quantity of cells [2]: −0.765
- z score, Quantity of connective tissue cells [2]: 0.637
- z score, Quantity of leukocytes [2]: −1.163
- z score, Quantity of lymphatic system cells [2]: −0.701
- z score, Quantity of phagocytes [2]: −2.061
- z score, Rheumatic Disease [2]: −0.053
- z score, Size of body [2]: −4.771
- z score, Solid tumor [2]: −0.186
- z score, Survival of organism [2]: −0.095
- z score, Synthesis of hormone [2]: 0.977
- z score, Thrombus [2]: 1
- z score, Transcription of RNA [2]: −2.488
- z score, Transport of molecule [2]: 2.421
- z score, canonical pathway Adrenomedullin Signaling pathway [3]: *
- z score, canonical pathway Dendritic Cell Maturation [3]: *
- z score, canonical pathway Endothelin-1 Signaling [3]: *
- z score, canonical pathway IL-1 Signaling [3]: −1
- z score, canonical pathway Osteoarthritis Pathway [3]: −1.342
- z score, canonical pathway Role of NFAT in Regulation of the Immune Response [3]: 0.378
